Test results reported in patent US20140343017A1, “PYRROLE COMPOUND” (Kabushiki Kaisha Yakult Honsha, priority 2012, published 2014).

Tested on: PTX-resistant H460/PV2-7 cells
Assay: Inhibitory effect on growth of PTX-resistant tumor cell line highly expressing TUBB3 (in vitro)
Type: cell-based, human
Conditions: for Resistance rate: H460/PV2-7 versus parent line H460; for IC50: Homo sapiens, NCI-H460, H460/PV2-7 cells, 96 hours culture, WST-8

Structure (SMILES)	Resistance rate	IC50	Resistance rate (listed as PTX)
Cc1c(-c2nnn(CCO)n2)[nH]c(CO)c1C(=O)c1cccc(Br)c1 [Compound 121, (3-bromophenyl)(5-(2-(2-hydroxyethyl)-2H-tetrazol-5-yl)-2-(hydroxymethyl)-4-methyl-1H-pyrrol-3-yl)methanone]	0.27	20.6 nM	–
CC(=O)O[C@H]1C(=O)[C@@]2(C)[C@H]([C@H](OC(=O)c3ccccc3)[C@]3(O)C[C@H](OC(=O)[C@H](O)[C@@H](NC(=O)c4ccccc4)c4ccccc4)C(C)=C1C3(C)C)[C@]1(OC(C)=O)CO[C@@H]1C[C@@H]2O [Paclitaxel, paclitaxel, reference compound]	4.6	16.5 nM	approximately 4.6
CNC(=O)c1[nH]c(-c2nnn(CCO)n2)c(C)c1C(=O)c1cccc(Br)c1 [Compound 142, 3-(3-bromobenzoyl)-5-(2-(2-hydroxyethyl)-2H-tetrazol-5-yl)-N,4-dimethyl-1H-pyrrole-2-carboxamide]	0.29	108 nM	–
CO[C@H]1C(=O)[C@]2(C)[C@@H](OC)C[C@H]3OC[C@@]3(OC(C)=O)[C@H]2[C@H](OC(=O)c2ccccc2)[C@]2(O)C[C@H](OC(=O)[C@H](O)[C@@H](NC(=O)OC(C)(C)C)c3ccccc3)C(C)=C1C2(C)C [Cabazitaxel, cabazitaxel]	3.2	4 nM	–
CC(=O)O[C@@]12CO[C@@H]1C[C@H](O)[C@@]1(C)C(=O)[C@H](O)C3=C(C)[C@@H](OC(=O)[C@H](O)[C@@H](NC(=O)OC(C)(C)C)c4ccccc4)C[C@@](O)([C@@H](OC(=O)c4ccccc4)[C@H]21)C3(C)C [Docetaxel, docetaxel]	2.6	4 nM	–
Cc1c(-c2nnn(CCO)n2)[nH]c(C(C)O)c1C(=O)c1cccc(Br)c1 (stereo not shown) [Compound 123, (3-bromophenyl)(2-(1-hydroxyethyl)-5-(2-(2-hydroxyethyl)-2H-tetrazol-5-yl)-4-methyl-1H-pyrrol-3-yl)methanone]	0.31	21 nM	–
